Source: ChEMBL document CHEMBL1146381, “Synthesis, stereochemistry and antimicrobial evaluation of t(3)-benzyl-r(2),c(6)-diarylpiperidin-4-one and its derivatives” (2007)
Converted amounts (≈) assume the structure as drawn.

Assays:
Assay type in all cases: functional
Pseudomonas aeruginosa = assay: Antibacterial activity against Pseudomonas aeruginosa
Klebsiella pneumoniae = assay: Antibacterial activity against Klebsiella pneumoniae
Escherichia coli = assay: Antibacterial activity against Escherichia coli
Aspergillus flavus = assay: Antifungal activity against Aspergillus flavus
Candida [1] = assay: Antifungal activity against Candida 51
Candida [2] = assay: Antifungal activity against Candida 6
Cryptococcus neoformans = assay: Antifungal activity against Cryptococcus neoformans
Enterococcus faecalis = assay: Antibacterial activity against Streptococcus faecalis
Aspergillus niger = assay: Antifungal activity against Aspergillus niger
Bacillus subtilis = assay: Antibacterial activity against Bacillus subtilis

Row | SMILES | MIC (Pseudomonas aeruginosa) | MIC (Klebsiella pneumoniae) | MIC (Escherichia coli) | MIC (Aspergillus flavus) | MIC (Candida [1]) | MIC (Candida [2]) | MIC (Cryptococcus neoformans) | MIC (Enterococcus faecalis) | MIC (Aspergillus niger) | MIC (Bacillus subtilis)
1 | O=C1CC(c2ccco2)NC(c2ccco2)C1Cc1ccccc1 (stereo not drawn) | 25 µg/mL (≈ 77.8 µM) | 12.5 µg/mL (≈ 38.9 µM) | 12.5 µg/mL (≈ 38.9 µM) | 50 µg/mL (≈ 156 µM) | 25 µg/mL (≈ 77.8 µM) | 25 µg/mL (≈ 77.8 µM) | 25 µg/mL (≈ 77.8 µM) | 12.5 µg/mL (≈ 38.9 µM) | 50 µg/mL (≈ 156 µM) | 50 µg/mL (≈ 156 µM)
2 | O/N=C1\CC(c2ccco2)NC(c2ccco2)C1Cc1ccccc1 (stereo not drawn) | 12.5 µg/mL (≈ 37.2 µM) | 6.25 µg/mL (≈ 18.6 µM) | 12.5 µg/mL (≈ 37.2 µM) | 25 µg/mL (≈ 74.3 µM) | 12.5 µg/mL (≈ 37.2 µM) | 25 µg/mL (≈ 74.3 µM) | 6.25 µg/mL (≈ 18.6 µM) | 12.5 µg/mL (≈ 37.2 µM) | 6.25 µg/mL (≈ 18.6 µM) | 25 µg/mL (≈ 74.3 µM)
3 | O=C1CC(c2ccccc2)NC(c2ccccc2)C1Cc1ccccc1 (stereo not drawn) |  | 100 µg/mL (≈ 293 µM) | 12.5 µg/mL (≈ 36.6 µM) | 50 µg/mL (≈ 146 µM) | 50 µg/mL (≈ 146 µM) | 50 µg/mL (≈ 146 µM) |  | 50 µg/mL (≈ 146 µM) | 100 µg/mL (≈ 293 µM) | 12.5 µg/mL (≈ 36.6 µM)
4 | O/N=C1\CC(c2ccccc2)NC(c2ccccc2)C1Cc1ccccc1 (stereo not drawn) | 25 µg/mL (≈ 70.1 µM) | 12.5 µg/mL (≈ 35.1 µM) | 12.5 µg/mL (≈ 35.1 µM) | 50 µg/mL (≈ 140 µM) | 12.5 µg/mL (≈ 35.1 µM) | 50 µg/mL (≈ 140 µM) | 25 µg/mL (≈ 70.1 µM) | 25 µg/mL (≈ 70.1 µM) | 100 µg/mL (≈ 281 µM) | 25 µg/mL (≈ 70.1 µM)
5 | O=CN1C(c2ccccc2)CC(=O)C(Cc2ccccc2)C1c1ccccc1 (stereo not drawn) | 12.5 µg/mL (≈ 33.8 µM) | 6.25 µg/mL (≈ 16.9 µM) | 25 µg/mL (≈ 67.7 µM) | 25 µg/mL (≈ 67.7 µM) | 12.5 µg/mL (≈ 33.8 µM) | 25 µg/mL (≈ 67.7 µM) | 12.5 µg/mL (≈ 33.8 µM) | 25 µg/mL (≈ 67.7 µM) | 50 µg/mL (≈ 135 µM) | 25 µg/mL (≈ 67.7 µM)
6 | O=CN1C(c2ccccc2)C/C(=N\O)C(Cc2ccccc2)C1c1ccccc1 (stereo not drawn) | 50 µg/mL (≈ 130 µM) | 6.25 µg/mL (≈ 16.3 µM) | 25 µg/mL (≈ 65 µM) | 12.5 µg/mL (≈ 32.5 µM) | 12.5 µg/mL (≈ 32.5 µM) | 12.5 µg/mL (≈ 32.5 µM) | 6.25 µg/mL (≈ 16.3 µM) | 25 µg/mL (≈ 65 µM) | 25 µg/mL (≈ 65 µM) | 25 µg/mL (≈ 65 µM)
7 | C[C@@H]1[C@H](O)[C@@H](C)/C=C/C=C/C=C/C=C/C=C/C=C/C=C/[C@H](O[C@@H]2O[C@H](C)[C@@H](O)[C@H](N)[C@@H]2O)C[C@@H]2O[C@](O)(C[C@@H](O)C[C@@H](O)[C@H](O)CC[C@@H](O)C[C@@H](O)CC(=O)O[C@H]1C)C[C@H](O)[C@H]2C(=O)O [AMPHOTERICIN B] |  |  |  | 50 µg/mL (≈ 54.1 µM) | 25 µg/mL (≈ 27.1 µM) | 25 µg/mL (≈ 27.1 µM) | 25 µg/mL (≈ 27.1 µM) |  | 50 µg/mL (≈ 54.1 µM) | 
8 | CN[C@@H]1[C@H](O[C@H]2[C@H](O[C@H]3[C@H](O)[C@@H](O)[C@H](N=C(N)N)[C@@H](O)[C@@H]3N=C(N)N)O[C@@H](C)[C@]2(O)C=O)O[C@@H](CO)[C@H](O)[C@H]1O [STREPTOMYCIN] | 25 µg/mL (≈ 43 µM) | 25 µg/mL (≈ 43 µM) | 12.5 µg/mL (≈ 21.5 µM) |  |  |  |  | 50 µg/mL (≈ 86 µM) |  | 12.5 µg/mL (≈ 21.5 µM)
